Assay results published in PubChem BioAssay AID1963433 (Molecular Pharmacology Branch, DTP, NCI, 2024).
Values joined by “and” are separate entries in the source; they are usually repeats but may differ in a detail not shown here. Equal entries are not always repeated. Blank lines part the entries; values can stand above or below the molecule they belong to.

Tested on: 772245-204-R-J1-PDC complex spheroid growth
Assay: Anticancer human tumor 772245-204-R-J1-PDC patient-derived rhabdomyosarcoma cell line growth inhibition [Asc]
Details: for viability, T/C: stronger effect = lower value
In short: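 Spheroid model: tumor line + HUVEC + hMSC. Single agents and combinations; top conc. at/near clinical Cmax (10 microM if undetermined), half-log dilutions. DMSO stocks at 800-fold test concentration.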

[1] = curve of first compound, second compound 0.01 µM
[2] = curve of first compound, second compound 0.0316 µM
[3] = curve of first compound, second compound 0.1 µM
[4] = curve of first compound, second compound 0.316 µM
[5] = curve of first compound, second compound 1 µM
[6] = second compound 0.01 µM, first compound 0.00949 µM
[7] = second compound 0.01 µM, first compound 0.03 µM
[8] = second compound 0.01 µM, first compound 0.0949 µM
[9] = second compound 0.01 µM, first compound 0.3 µM
[10] = second compound 0.0316 µM, first compound 0.00949 µM
[11] = second compound 0.0316 µM, first compound 0.03 µM
[12] = second compound 0.0316 µM, first compound 0.0949 µM
[13] = second compound 0.0316 µM, first compound 0.3 µM
[14] = second compound 0.1 µM, first compound 0.00949 µM
[15] = second compound 0.1 µM, first compound 0.03 µM
[16] = second compound 0.1 µM, first compound 0.0949 µM
[17] = second compound 0.1 µM, first compound 0.3 µM
[18] = second compound 0.316 µM, first compound 0.00949 µM
[19] = second compound 0.316 µM, first compound 0.03 µM
[20] = second compound 0.316 µM, first compound 0.0949 µM
[21] = second compound 0.316 µM, first compound 0.3 µM
[22] = second compound 1 µM, first compound 0.00949 µM
[23] = second compound 1 µM, first compound 0.03 µM
[24] = second compound 1 µM, first compound 0.0949 µM
[25] = second compound 1 µM, first compound 0.3 µM
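Also: compound exposure lasted seven days.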
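For viability, T/C in this document: 100% = DMSO vehicle control viability.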

- IC50 [1]: > 300 nM
- IC50 [2]: > 300 nM
- IC50 [3]: > 300 nM
- IC50 [4]: > 300 nM
- IC50 [5]: > 300 nM
Compound: NC(=O)C(=Cn1cnc(-c2cc(C(F)(F)F)cc(C(F)(F)F)c2)n1)c1cncnc1 + CNC(C)C(=O)NC1CN(S(=O)(=O)c2cccc(S(=O)(=O)N3CCC4CCC(C(=O)NC(c5ccccc5)c5ccccc5)N4C(=O)C(NC(=O)C(C)NC)C3)c2)CCC2CCC(C(=O)NC(c3ccccc3)c3ccccc3)N2C1=O
- viability, T/C (second compound 0.01 µM, first compound 0.000949 µM): 96.8%
- viability, T/C (second compound 0.01 µM, first compound 0.003 µM): 107%
- viability, T/C [6]: 100%
- viability, T/C [7]: 84.2%
- viability, T/C [8]: 62.2%
- viability, T/C [9]: 68.5%
- viability, T/C (second compound 0.0316 µM, first compound 0.000949 µM): 92.9%
- viability, T/C (second compound 0.0316 µM, first compound 0.003 µM): 114%
- viability, T/C [10]: 100%
- viability, T/C [11]: 77.2%
- viability, T/C [12]: 88.7%
- viability, T/C [13]: 67.3%
- viability, T/C (second compound 0.1 µM, first compound 0.000949 µM): 97.8%
- viability, T/C (second compound 0.1 µM, first compound 0.003 µM): 98.9%
- viability, T/C [14]: 91.9%
- viability, T/C [15]: 80.9%
- viability, T/C [16]: 57.3%
- viability, T/C [17]: 71.7%
- viability, T/C (second compound 0.316 µM, first compound 0.000949 µM): 95.3%
- viability, T/C (second compound 0.316 µM, first compound 0.003 µM): 97.2%
- viability, T/C [18]: 86.2%
- viability, T/C [19]: 77.8%
- viability, T/C [20]: 62%
- viability, T/C [21]: 69.3%
- viability, T/C (second compound 1 µM, first compound 0.000949 µM): 99.2%
- viability, T/C (second compound 1 µM, first compound 0.003 µM): 97.2%
- viability, T/C [22]: 94.4%
- viability, T/C [23]: 102%
- viability, T/C [24]: 78.3%
- viability, T/C [25]: 56.7%

- IC50 (curve of compound): > 1000 nM
Compound: CCN1CCN(Cc2ccc(Nc3ncc(F)c(-c4cc(F)c5nc(C)n(C(C)C)c5c4)n3)nc2)CC1
- viability, T/C (compound 0.00316 µM): 90.5% and 99% and 71.9%
- viability, T/C (compound 0.01 µM): 88.2% and 90.2% and 79.9%
- viability, T/C (compound 0.0316 µM): 103% and 87.5% and 96.3%
- viability, T/C (compound 0.1 µM): 99.7% and 97.4% and 104%
- viability, T/C (compound 0.316 µM): 100% and 102% and 97%
- viability, T/C (compound 1 µM): 112% and 121% and 102%

- IC50 [1]: > 3000 nM
- IC50 [2]: > 3000 nM
- IC50 [3]: > 3000 nM
- IC50 [4]: > 3000 nM
- IC50 [5]: > 3000 nM
Compound: CCN1C(C(=O)NC23CCC(C(=O)O)(CC2)CC3)C(c2cccc(Cl)c2F)C2(C(=O)Nc3cc(Cl)ccc32)C12CCCCC2 (centres undefined) + CNC(C)C(=O)NC1CN(S(=O)(=O)c2cccc(S(=O)(=O)N3CCC4CCC(C(=O)NC(c5ccccc5)c5ccccc5)N4C(=O)C(NC(=O)C(C)NC)C3)c2)CCC2CCC(C(=O)NC(c3ccccc3)c3ccccc3)N2C1=O
- viability, T/C [6]: 103%
- viability, T/C [7]: 106%
- viability, T/C [8]: 111%
- viability, T/C [9]: 96.1%
- viability, T/C (second compound 0.01 µM, first compound 0.949 µM): 80.3%
- viability, T/C (second compound 0.01 µM, first compound 3 µM): 77.4%
- viability, T/C [10]: 97.7%
- viability, T/C [11]: 105%
- viability, T/C [12]: 98.2%
- viability, T/C [13]: 90.9%
- viability, T/C (second compound 0.0316 µM, first compound 0.949 µM): 93.3%
- viability, T/C (second compound 0.0316 µM, first compound 3 µM): 75.7%
- viability, T/C [14]: 97.9%
- viability, T/C [15]: 102%
- viability, T/C [16]: 88.5%
- viability, T/C [17]: 91%
- viability, T/C (second compound 0.1 µM, first compound 0.949 µM): 82.2%
- viability, T/C (second compound 0.1 µM, first compound 3 µM): 65.2%
- viability, T/C [18]: 96.6%
- viability, T/C [19]: 96.4%
- viability, T/C [20]: 98.6%
- viability, T/C [21]: 92.3%
- viability, T/C (second compound 0.316 µM, first compound 0.949 µM): 86.8%
- viability, T/C (second compound 0.316 µM, first compound 3 µM): 105%
- viability, T/C [22]: 103%
- viability, T/C [23]: 105%
- viability, T/C [24]: 96.2%
- viability, T/C [25]: 89.1%
- viability, T/C (second compound 1 µM, first compound 0.949 µM): 86.4%
- viability, T/C (second compound 1 µM, first compound 3 µM): 76.3%

- IC50 (curve of compound): 990 nM and > 1000 nM
Compound: O=C(c1ccc(F)c(F)c1Nc1ccc(I)cc1F)N1CC(O)([C@@H]2CCCCN2)C1
- viability, T/C (compound 0.00316 µM): 108% and 99.4% and 97.4%
- viability, T/C (compound 0.01 µM): 94.5% and 97% and 98.1%
- viability, T/C (compound 0.0316 µM): 87.7% and 96.5% and 90.6%
- viability, T/C (compound 0.1 µM): 107% and 102% and 72.1%
- viability, T/C (compound 0.316 µM): 105% and 107% and 108%
- viability, T/C (compound 1 µM): 49.5% and 60.2% and 114%
